Data on four compounds can be found in patent US20230287510A1, “COMPOSITIONS, PANELS, AND METHODS FOR CHARACTERIZING CHRONIC LYMPHOCYTIC LEUKEMIA” (The Broad Institute, Inc., priority 2020, published 2023).

For this data set, the system named is chronic lymphocytic leukemia (CLL) samples classified by expression subtype (Ec-i, EC-m1, EC-m2, EC-m3, EC-m4, EC-o, EC-u1, EC-u2). Description: Ex-vivo drug sensitivity (percent viability) of CLL samples compared between expression subtypes (ECs). For Mean viability in the EC: test concentration or dose not given here. For Mean viability in the other ECs: test concentration or dose not given here. Type of data set: cell-based. The source says: An analysis was completed to determine whether the expression clusters (ECs) can be used to predict the resistance and sensitivity of different chronic lymphocytic leukemias to various drugs. […] The expression subtypes were then used with the drug sensitivity data to compare the percent […] of samples in each expression cluster to the percent viability of samples in all other expression clusters.

As to dasatinib, the “Mean viability in the other ECs” value reads like this: (all ECs other than EC-m1) 0.73; (all ECs other than EC-m3) 0.72; (all ECs other than EC-m4) 0.70; (all ECs other than EC-u1) 0.79; (all ECs other than EC-u2) 0.75. The “Drug response associated with the EC” value runs as follows: (expression cluster EC-m1) “Resistant”; (expression cluster EC-m3) “Resistant”; (expression cluster EC-m4) “Resistant”; (expression cluster EC-u1) “Sensitive”; (expression cluster EC-u2) “Sensitive”. Also, the “Mean viability in the EC” value came out at 0.90 (expression cluster EC-m1); 0.87 (expression cluster EC-m3); 0.89 (expression cluster EC-m4); 0.64 (expression cluster EC-u1); 0.46 (expression cluster EC-u2).
As to `COc1cc2nc(-c3cc(F)ccc3O)nc(N[C@@H]3CNC[C@H]3C(C)(C)O)c2cc1OC` [CCT241533], the “Mean viability in the other ECs” value by setting is: (all ECs other than EC-m1) 1.06; (all ECs other than EC-m3) 1.06. Further, the “Drug response associated with the EC” value reads like this: (expression cluster EC-m1) “Resistant”; (expression cluster EC-m3) “Resistant”. Also, the “Mean viability in the EC” value was 1.11 (expression cluster EC-m1) and 1.09 (expression cluster EC-m3).
With `O=C(Nc1cccc(Nc2ncc(Br)c(NCCc3cnc[nH]3)n2)c1)N1CCCC1` [BX912], for the setting “all ECs other than EC-u1”, the “Mean viability in the other ECs” value amounted to 1.07. In addition, under “expression cluster EC-u1”, the “Drug response associated with the EC” value is listed as “Sensitive” and the “Mean viability in the EC” value is reported as 1.05.
As to `C[C@@H]1CN(CC(=O)Nc2ccc3c(c2)Cc2cccc(-c4cc(=O)cc(N5CCOCC5)o4)c2S3)C[C@H](C)O1` [KU-60019], the “Mean viability in the other ECs” value by setting is: (all ECs other than EC-m3) 0.97; (all ECs other than EC-u2) 0.97. Further, the “Drug response associated with the EC” value reads like this: (expression cluster EC-m3) “Resistant”; (expression cluster EC-u2) “Sensitive”. Besides, the “Mean viability in the EC” value worked out at 1.00 (expression cluster EC-m3) and 0.90 (expression cluster EC-u2).
